pIC50: −log10 of the molar value. Converted amounts (≈) assume the structure as drawn.
What was measured:
[1] = tested on: Staphylococcus epidermidis; test: Antibacterial activity against methicillin-resistant Staphylococcus epidermidis after 18 to 20 hrs by CLSI-protocol based broth microdilution method; format: functional
Streptococcus pneumoniae = test: Antibacterial activity against penicillin-resistant Streptococcus pneumoniae after 18 to 20 hrs by CLSI-protocol based broth microdilution method; format: functional
Staphylococcus aureus [2] = test: Antibacterial activity against methicillin-resistant Staphylococcus aureus after 18 to 20 hrs by CLSI-protocol based broth microdilution method; format: functional
[3] = target: DNA topoisomerase 2-alpha (Homo sapiens, UniProt P11388); test: Inhibition of human topoisomerase-2alpha using catenated DNA as substrate after 30 mins by ethidium bromide-based gel electrophoresis
[4] = tested on: Staphylococcus epidermidis; test: Antibacterial activity against methicillin-sensitive Staphylococcus epidermidis after 18 to 20 hrs by CLSI-protocol based broth microdilution method; format: functional
DNA gyrase = DNA gyrase (Staphylococcus aureus, UniProt P0A0K8+P20831)
Description: Inhibition of Staphylococcus aureus DNA gyrase supercoiling activity using relaxed pHOT-1 DNA as substrate after 60 mins by ethidium bromide-based gel electrophoresis

Streptococcus pyogenes = test: Antibacterial activity against Streptococcus pyogenes after 18 to 20 hrs by CLSI-protocol based broth microdilution method; format: functional; details: Streptococcus pyogenes; read-out: MIC
Staphylococcus aureus [5] = test: Antibacterial activity against methicillin-sensitive Staphylococcus aureus after 18 to 20 hrs by CLSI-protocol based broth microdilution method; format: functional; details: Staphylococcus aureus; read-out: MIC
[6] = Solubility of the compound in pH 6.8 intestinal juice incubated at 37 degC for 24 hrs by LC/MS/MS analysis; format: physicochemical
Neisseria gonorrhoeae = test: Antibacterial activity against Neisseria gonorrhoeae after 18 to 20 hrs by CLSI-protocol based agar microdilution method; format: functional
[7] = Elimination half life in CD1 mouse at 10 mg/kg, po by LC-MS/MS analysis; format: ADME, organism-based; details: in vivo, read-out: beta t1/2 (converted)
[8] = Elimination half life in Sprague-Dawley rat at 100 mg/kg, po by LC-MS/MS analysis; format: ADME, organism-based; details: in vivo, read-out: beta t1/2 (converted)
[9] = Cmax in CD1 mouse at 10 mg/kg, po by LC-MS/MS analysis; format: ADME, organism-based; parameters: dose 10 mg/kg, route oral; details: in vivo
[10] = AUCt in Sprague-Dawley rat at 100 mg/kg, po by LC-MS/MS analysis; format: ADME, organism-based; details: in vivo
[11] = Solubility of the compound in pH 1.2 gastric juice incubated at 37 degC for 24 hrs by LC/MS/MS analysis; format: physicochemical
Staphylococcus aureus [12] = test: Antibacterial activity against methicillin-sensitive Staphylococcus aureus infected in Kunming mouse dosed subcutaneously at 0.5 and 4.0 hrs postinfection and measured at 7 to 14 days post treatment by Bliss method; format: functional; details: sc
[13] = target: Voltage-gated inwardly rectifying potassium channel KCNH2 (Homo sapiens, UniProt Q12809); test: Inhibition of human ERG expressed in CHO cells in at -80 mV holding potential by automated Qpatch clamp assay; format: cell-based
[14] = Oral bioavailability in Sprague-Dawley rat at 100 mg/kg by LC-MS/MS analysis; format: ADME, organism-based; details: in vivo
[15] = Solubility of the compound in water incubated at 37 degC for 24 hrs by LC/MS/MS analysis; format: physicochemical
[16] = AUCt in CD1 mouse at 10 mg/kg, po by LC-MS/MS analysis; format: ADME, organism-based; details: in vivo
[17] = MRT in CD1 mouse at 10 mg/kg, po by LC-MS/MS analysis; format: ADME, organism-based; details: in vivo
[18] = Tmax in CD1 mouse at 10 mg/kg, po by LC-MS/MS analysis; format: ADME, organism-based; details: in vivo
Staphylococcus aureus [19] = test: Antibacterial activity against methicillin-resistant Staphylococcus aureus infected in Kunming mouse dosed subcutaneously at 0.5 and 4.0 hrs postinfection and measured at 7 to 14 days post treatment by Bliss method; format: functional; details: sc

Voltage-gated inwardly rectifying potassium channel KCNH2, sequence (Q12809 whole entry): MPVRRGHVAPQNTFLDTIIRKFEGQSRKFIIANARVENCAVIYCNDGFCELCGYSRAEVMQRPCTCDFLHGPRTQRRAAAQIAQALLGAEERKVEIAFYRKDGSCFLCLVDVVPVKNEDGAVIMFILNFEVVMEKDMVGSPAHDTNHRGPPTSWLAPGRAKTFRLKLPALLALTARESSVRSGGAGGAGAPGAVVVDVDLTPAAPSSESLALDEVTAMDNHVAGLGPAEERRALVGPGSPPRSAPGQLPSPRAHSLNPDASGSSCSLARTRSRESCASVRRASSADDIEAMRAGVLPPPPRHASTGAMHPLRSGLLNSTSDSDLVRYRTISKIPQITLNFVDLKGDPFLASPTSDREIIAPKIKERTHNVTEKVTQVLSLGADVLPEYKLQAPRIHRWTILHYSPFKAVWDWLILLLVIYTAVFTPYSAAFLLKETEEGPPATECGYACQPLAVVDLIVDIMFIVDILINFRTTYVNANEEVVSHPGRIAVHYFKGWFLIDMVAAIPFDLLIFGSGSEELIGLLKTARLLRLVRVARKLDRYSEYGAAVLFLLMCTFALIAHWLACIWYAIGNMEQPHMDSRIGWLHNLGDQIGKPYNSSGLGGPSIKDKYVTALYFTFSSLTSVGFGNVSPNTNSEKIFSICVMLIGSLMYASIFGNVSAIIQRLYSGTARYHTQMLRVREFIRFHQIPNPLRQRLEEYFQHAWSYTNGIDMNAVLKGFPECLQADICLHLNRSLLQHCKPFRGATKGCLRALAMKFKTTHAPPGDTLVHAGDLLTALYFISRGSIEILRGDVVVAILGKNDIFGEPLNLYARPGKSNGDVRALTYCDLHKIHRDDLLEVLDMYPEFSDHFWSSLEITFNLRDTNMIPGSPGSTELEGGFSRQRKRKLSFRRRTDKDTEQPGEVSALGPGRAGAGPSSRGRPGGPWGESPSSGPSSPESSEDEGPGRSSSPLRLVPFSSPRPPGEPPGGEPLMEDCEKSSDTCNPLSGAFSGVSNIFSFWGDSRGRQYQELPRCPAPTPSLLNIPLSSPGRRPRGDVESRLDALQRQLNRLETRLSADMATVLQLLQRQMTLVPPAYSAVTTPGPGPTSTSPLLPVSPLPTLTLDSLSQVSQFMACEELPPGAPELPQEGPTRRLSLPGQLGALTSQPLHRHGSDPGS
DNA topoisomerase 2-alpha, sequence (P11388 whole entry): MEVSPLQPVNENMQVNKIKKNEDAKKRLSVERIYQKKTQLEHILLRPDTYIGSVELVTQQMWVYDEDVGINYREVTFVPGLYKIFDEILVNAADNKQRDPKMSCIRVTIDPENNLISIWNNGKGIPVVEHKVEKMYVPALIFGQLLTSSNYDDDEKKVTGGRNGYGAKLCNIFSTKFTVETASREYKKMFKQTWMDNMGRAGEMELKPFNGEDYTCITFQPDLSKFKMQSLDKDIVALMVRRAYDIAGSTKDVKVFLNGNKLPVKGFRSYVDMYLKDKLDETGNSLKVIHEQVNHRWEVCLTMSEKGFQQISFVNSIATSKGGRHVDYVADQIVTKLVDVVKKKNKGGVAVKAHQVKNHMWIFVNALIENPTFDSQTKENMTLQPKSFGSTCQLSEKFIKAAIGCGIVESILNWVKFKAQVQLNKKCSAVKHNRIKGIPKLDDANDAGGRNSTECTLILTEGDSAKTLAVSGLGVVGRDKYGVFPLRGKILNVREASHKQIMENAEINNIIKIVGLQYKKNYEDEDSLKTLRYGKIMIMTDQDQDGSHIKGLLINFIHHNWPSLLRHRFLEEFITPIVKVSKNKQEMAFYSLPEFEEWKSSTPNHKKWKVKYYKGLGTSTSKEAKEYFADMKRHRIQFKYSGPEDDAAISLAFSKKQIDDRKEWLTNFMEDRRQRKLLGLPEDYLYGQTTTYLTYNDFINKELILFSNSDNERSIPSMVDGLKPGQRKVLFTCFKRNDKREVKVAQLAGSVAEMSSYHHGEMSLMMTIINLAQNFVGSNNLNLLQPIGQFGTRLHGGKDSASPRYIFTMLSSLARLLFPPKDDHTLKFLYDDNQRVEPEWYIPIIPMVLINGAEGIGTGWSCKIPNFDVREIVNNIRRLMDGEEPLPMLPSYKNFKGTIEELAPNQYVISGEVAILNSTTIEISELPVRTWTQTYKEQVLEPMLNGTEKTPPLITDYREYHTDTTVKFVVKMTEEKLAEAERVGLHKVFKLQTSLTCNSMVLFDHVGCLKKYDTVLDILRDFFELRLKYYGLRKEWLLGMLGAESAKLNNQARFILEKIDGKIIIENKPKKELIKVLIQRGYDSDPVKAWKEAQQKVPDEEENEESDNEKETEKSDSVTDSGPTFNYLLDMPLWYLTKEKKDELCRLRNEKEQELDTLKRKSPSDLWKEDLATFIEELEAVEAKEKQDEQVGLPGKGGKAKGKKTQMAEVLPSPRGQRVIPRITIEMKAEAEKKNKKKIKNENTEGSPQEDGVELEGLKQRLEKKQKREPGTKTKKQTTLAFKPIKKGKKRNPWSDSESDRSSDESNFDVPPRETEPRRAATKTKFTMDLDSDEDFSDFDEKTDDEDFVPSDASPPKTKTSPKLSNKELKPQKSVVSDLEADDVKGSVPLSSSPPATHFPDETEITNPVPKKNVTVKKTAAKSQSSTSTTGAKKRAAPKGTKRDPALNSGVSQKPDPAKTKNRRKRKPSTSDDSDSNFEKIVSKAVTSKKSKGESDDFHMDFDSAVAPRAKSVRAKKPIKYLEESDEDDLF
DNA gyrase, sequence (P0A0K8 whole entry): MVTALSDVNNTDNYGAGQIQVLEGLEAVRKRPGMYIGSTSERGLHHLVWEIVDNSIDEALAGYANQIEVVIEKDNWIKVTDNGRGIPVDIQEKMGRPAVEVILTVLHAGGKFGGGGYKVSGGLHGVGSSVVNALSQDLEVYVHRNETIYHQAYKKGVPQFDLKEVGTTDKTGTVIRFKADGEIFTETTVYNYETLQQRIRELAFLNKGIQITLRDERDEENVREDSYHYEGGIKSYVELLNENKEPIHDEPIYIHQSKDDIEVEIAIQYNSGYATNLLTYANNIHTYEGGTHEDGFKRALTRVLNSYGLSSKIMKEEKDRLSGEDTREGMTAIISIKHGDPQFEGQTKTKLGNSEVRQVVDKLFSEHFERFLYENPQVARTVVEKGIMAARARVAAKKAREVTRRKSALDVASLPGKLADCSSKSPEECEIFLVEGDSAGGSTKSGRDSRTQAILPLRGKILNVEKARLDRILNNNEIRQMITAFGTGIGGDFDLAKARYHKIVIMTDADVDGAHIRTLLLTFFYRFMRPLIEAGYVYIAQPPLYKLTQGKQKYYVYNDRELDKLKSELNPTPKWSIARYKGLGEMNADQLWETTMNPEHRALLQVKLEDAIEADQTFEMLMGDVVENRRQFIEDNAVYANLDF
DNA gyrase, sequence (P20831 whole entry): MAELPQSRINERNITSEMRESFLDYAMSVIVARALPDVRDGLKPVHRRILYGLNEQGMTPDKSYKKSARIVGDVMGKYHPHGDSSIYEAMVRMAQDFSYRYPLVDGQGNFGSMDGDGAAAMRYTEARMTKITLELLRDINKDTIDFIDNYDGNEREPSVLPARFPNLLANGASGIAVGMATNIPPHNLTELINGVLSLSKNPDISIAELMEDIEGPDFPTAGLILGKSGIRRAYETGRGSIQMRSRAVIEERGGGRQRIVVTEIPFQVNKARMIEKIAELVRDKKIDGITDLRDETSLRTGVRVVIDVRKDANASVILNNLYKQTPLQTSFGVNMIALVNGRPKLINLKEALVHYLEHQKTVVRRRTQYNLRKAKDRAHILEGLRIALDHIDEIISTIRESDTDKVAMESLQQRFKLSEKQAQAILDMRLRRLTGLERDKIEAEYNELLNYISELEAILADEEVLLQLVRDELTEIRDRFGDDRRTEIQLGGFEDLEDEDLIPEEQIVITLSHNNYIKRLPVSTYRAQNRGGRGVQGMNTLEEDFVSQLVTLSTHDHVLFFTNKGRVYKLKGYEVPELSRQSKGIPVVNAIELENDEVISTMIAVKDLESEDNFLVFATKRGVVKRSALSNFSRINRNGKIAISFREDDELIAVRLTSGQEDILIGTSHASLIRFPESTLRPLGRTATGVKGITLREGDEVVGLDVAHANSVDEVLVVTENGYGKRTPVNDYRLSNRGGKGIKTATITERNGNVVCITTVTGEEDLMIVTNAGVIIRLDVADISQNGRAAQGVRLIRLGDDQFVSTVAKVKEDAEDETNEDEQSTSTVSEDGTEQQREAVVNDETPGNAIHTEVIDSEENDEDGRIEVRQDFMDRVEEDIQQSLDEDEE

Structure (SMILES)	MIC [1] [µg/mL]	MIC (Streptococcus pneumoniae) [µg/mL]	MIC (Staphylococcus aureus [2]) [µg/mL]	pIC50 [3]	MIC [4] [µg/mL]	pIC50 (DNA gyrase)	MIC (Streptococcus pyogenes) [µg/mL]	MIC (Staphylococcus aureus [5]) [µg/mL]	MIC50 (Neisseria gonorrhoeae) [µg/mL]	MIC90 (Neisseria gonorrhoeae) [µg/mL]	ED50 (Staphylococcus aureus [12]) [mg/kg]	pIC50 [13]	Tmax [18] [h]	other results
C[C@@H]1CN2c3c(cc4c(N5C(=O)SC[C@@H]5C)noc4c3F)CC3(C(=O)NC(=O)NC3=O)[C@H]2[C@H](C)O1	0.06 to 0.25 (≈ 0.119 to 0.497 µM)	0.125 to 1 (≈ 0.248 to 1.99 µM)	0.03 to 0.125 (≈ 0.0596 to 0.248 µM)	< 3.70	0.03 to 0.125 (≈ 0.0596 to 0.248 µM)	4.81	0.125 to 0.25 (≈ 0.248 to 0.497 µM)	0.25 to 0.5 (≈ 0.497 to 0.993 µM)						
C[C@@H]1CN2c3c(cc4c(N5C[C@H](C)SC5=O)noc4c3F)CC3(C(=O)NC(=O)NC3=O)[C@H]2[C@H](C)O1	< 0.03	< 0.03		< 3.70	< 0.03	4.90	< 0.03		0.06 (≈ 0.119 µM)	0.125 (≈ 0.248 µM)	9.59	< 4.40	1.33	solubility at 24 h [6]: 11.3 µM (≈ 5.69 µg/mL); half-life [7]: 7.68 h; half-life [8]: 8.63 h; Cmax [9]: 2080 ng/mL; AUC(0-t) [10]: 452 µg·h/mL; solubility at 24 h [11]: 9.4 µM (≈ 4.73 µg/mL); bioavailability [14]: 52.7%; solubility at 24 h [15]: 10.2 µM (≈ 5.14 µg/mL); AUC(0-t) [16]: 22.5 µg·h/mL; MRT [17]: 11.4 h
C[C@@H]1CN2c3c(cc4c(N5CCSC5=O)noc4c3F)CC3(C(=O)NC(=O)NC3=O)[C@H]2[C@H](C)O1	< 0.03	≤ 0.03	< 0.03		< 0.03		< 0.03	≤ 0.03	0.03 (≈ 0.0613 µM)	0.06 (≈ 0.123 µM)		< 4.40		
C[C@@H]1CN2c3c(cc4c(N5C[C@@H](C)SC5=O)noc4c3F)CC3(C(=O)NC(=O)NC3=O)[C@H]2[C@H](C)O1	0.03 to 0.06 (≈ 0.0596 to 0.119 µM)	≤ 0.03	0.03 to 0.25 (≈ 0.0596 to 0.497 µM)	< 3.70		4.82	< 0.03		0.03 (≈ 0.0596 µM)	0.125 (≈ 0.248 µM)		< 4.40	0.58	
COc1cccc2c1C(=O)c1c(O)c3c(c(O)c1C2=O)C[C@@](O)(C(=O)CO)C[C@@H]3O[C@H]1C[C@H](N)[C@H](O)[C@H](C)O1 [DOXORUBICIN]				6.22										
CC(=O)NC[C@H]1CN(c2ccc(N3CCOCC3)c(F)c2)C(=O)O1 [LINEZOLID]											4.53			ED50 (Staphylococcus aureus [19]): 4.83 mg/kg

— ChEMBL document CHEMBL4316588, “Design, Synthesis, and Biological Evaluation of Novel DNA Gyrase-Inhibiting Spiropyrimidinetriones as Potent Antibiotics for Treatment of Infections Caused by Multidrug-Resistant Gram-Positive Bacteria” (J Med Chem, 2019)
